For one test, the target named is T1, human 11β-HSD1 (Homo sapiens, UniProt P28845).
T1 construct: 100 ug/ml human/mouse liver microsomes; from tissue; host or cells: human liver microsomes
The test can be described thus: Enzyme activity analysis on human 11β-HSD1 (HTRF cortisol, liver microsomes). In kind it is biochemical. To be noted: first value of cell. In outline:
(§1)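 Cortisol generated by mouse or human liver microsome 11β-HSD1 during 2 h at 37° C., measured by HTRF competition (cryptate anti-cortisol antibody, d2-cortisol, 2 h room temperature) against a cortisol standard curve. IC50 from percent inhibition versus no-compound control.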
Background: In TR-FRET formats the signal depends on donor and acceptor labels being close together.

Another test has as its target T2, mouse 11β-HSD1 (Mus musculus, UniProt P50172).
T2 construct: 100 ug/ml human/mouse liver microsomes; from tissue; host or cells: mouse liver microsomes
The test can be described thus: Enzyme activity analysis on mouse 11β-HSD1 (HTRF cortisol, liver microsomes). It counts as biochemical. To be noted: second value of cell. In outline:
as §1

A value given as a limit tells only on which side of the number the result lay.

T2 sequence (P50172 whole entry): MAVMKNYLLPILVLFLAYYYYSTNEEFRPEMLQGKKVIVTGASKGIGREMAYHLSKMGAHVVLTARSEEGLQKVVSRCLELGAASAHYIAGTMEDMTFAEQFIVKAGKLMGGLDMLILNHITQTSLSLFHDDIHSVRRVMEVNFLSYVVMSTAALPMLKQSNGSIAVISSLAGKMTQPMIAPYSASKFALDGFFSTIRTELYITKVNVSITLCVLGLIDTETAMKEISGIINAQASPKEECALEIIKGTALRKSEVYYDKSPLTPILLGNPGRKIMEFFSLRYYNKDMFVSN
T1 sequence (P28845 whole entry): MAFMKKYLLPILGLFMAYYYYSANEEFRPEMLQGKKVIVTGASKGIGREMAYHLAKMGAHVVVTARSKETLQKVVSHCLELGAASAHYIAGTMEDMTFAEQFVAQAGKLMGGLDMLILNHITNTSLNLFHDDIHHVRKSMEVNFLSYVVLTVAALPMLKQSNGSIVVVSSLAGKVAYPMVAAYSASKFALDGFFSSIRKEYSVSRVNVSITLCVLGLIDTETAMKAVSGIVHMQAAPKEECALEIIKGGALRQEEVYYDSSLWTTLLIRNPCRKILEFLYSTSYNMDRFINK

Turning to `CN(C(C)(C)C(=O)NC1C2CC3CC1CC(O)(C3)C2)S(=O)(=O)c1ccccc1N` (stereo not drawn) [compound 225], the figures for the IC50 against human 11β-HSD1 and against mouse 11β-HSD1 were 0.011 µM and 0.083 µM, respectively.

For `CC(C)(NS(=O)(=O)c1cccc(Cl)c1)C(=O)NC1C2CC3CC(C2)CC1C3` (stereo not drawn) [compound 10, N-(adamantane-2-yl)-2-methyl-2-(3-chlorophenylsulfonamido)propanamide], the IC50 (usually the concentration that gives 50% inhibition) at human 11β-HSD1 is 0.212 µM; against mouse 11β-HSD1 it was 0.735 µM.

As for `NC(=O)C12CC3CC(C1)C(NC(=O)C1(NS(=O)(=O)c4cccc5cccnc45)CCCC1)C(C3)C2` (stereo not drawn) [compound 168, N-4-(1-(quinoline-8-sulfonamido)cyclopentanecarboxyamido)adamantane-1-carboxyamide], the IC50 came out at 0.022 µM on human 11β-HSD1 and 0.007 µM on mouse 11β-HSD1.

On to `CC(C)(NS(=O)(=O)c1ccccc1Cl)C(=O)NC1C2CC3CC1CC(C(=O)NCCO)(C3)C2` (stereo not drawn) [compound 231, 4-[2-(2-chloro-benzenesulfonylamino)-2-methyl-propionylamino]-adamantane-1-carboxylic acid ethanolamide], for which the IC50 at human 11β-HSD1 and against mouse 11β-HSD1 was over 2.5 µM each time.

For `Cc1c(Cl)cccc1S(=O)(=O)N(C)C(C)(C)C(=O)NC1C2CC3CC1CC(O)(C3)C2` (stereo not drawn) [compound 204, N-(5-hydroxyadamantane-2-yl)-2-(2-methyl-3-chloro-N-methylphenylsulfonamido)-2-methylpropanamide], the values for the IC50 against human 11β-HSD1 and at mouse 11β-HSD1 were 0.004 µM and 0.042 µM, respectively.

Consider `CC(C)(NS(=O)(=O)c1cc(Cl)cc(Br)c1)C(=O)NC1C2CC3CC1CC(C(N)=O)(C3)C2` (stereo not drawn) [compound 125], for which the IC50 at human 11β-HSD1 was found to be 0.021 µM; against mouse 11β-HSD1, 0.168 µM.

`CN(C(C)(C)C(=O)NC1C2CC3CC1CC(O)(C3)C2)S(=O)(=O)c1ccccc1F` (stereo not drawn) [compound 202, N-(5-hydroxyadamantane-2-yl)-2-(2-fluoro-N-methylphenylsulfonamido)-2-methylpropanamide]: the IC50 against human 11β-HSD1 is 0.011 µM; against mouse 11β-HSD1 it was 0.208 µM.

`Cc1ccccc1S(=O)(=O)N(C)C(C)(C)C(=O)NC1C2CC3CC1CC(O)(C3)C2` (stereo not drawn) [compound 207, N-(5-hydroxyadamantane-2-yl)-2-(2-methyl-N-methylphenylsulfonamido)-2-methylpropanamide]: the IC50 came out at 0.006 µM against human 11β-HSD1 and 0.107 µM at mouse 11β-HSD1.

Regarding `CC(C)(NS(=O)(=O)c1ccc(C(=O)NC2C3CC4CC(C3)CC2C4)cc1Cl)C(=O)NC1C2CC3CC(C2)CC1C3` (stereo not drawn) [compound 44], the IC50 at human 11β-HSD1 came out at 0.481 µM; on mouse 11β-HSD1 it was 0.167 µM.

For the compound `Cc1ccccc1S(=O)(=O)NC(C)(C)C(=O)NC1C2CC3CC(C2)CC1C3` (stereo not drawn) [compound 15, N-(adamantane-2-yl)-2-methyl-2-(2-methylphenylsulfonamido)propanamide], the IC50 at human 11β-HSD1 was 0.036 µM; against mouse 11β-HSD1 it was 0.313 µM.

As to `CN(C(C)(C)C(=O)NC1C2CC3CC1CC(C(N)=O)(C3)C2)S(=O)(=O)c1cccc2cccnc12` (stereo not drawn) [compound 188, N-4-(2-methyl-2-(N-methylquinoline-8-sulfonamido)propanamido)adamantane-1-carboxyamide], the results for the IC50 against human 11β-HSD1 and on mouse 11β-HSD1 were 0.013 µM and 0.007 µM, respectively.

As to `CN(C(C)(C)C(=O)NC1C2CC3CC1CC(C(N)=O)(C3)C2)S(=O)(=O)c1ccccc1C(F)(F)F` (stereo not drawn) [compound 193, N-4-(2-(2-trifluoromethyl-N-methylphenylsulfonamido)-2-methylpropanamido)adamantane-1-carboxyamide], the IC50 came out at 0.007 µM against human 11β-HSD1 and 0.012 µM against mouse 11β-HSD1.

Take `CCN(C(C)(C)C(=O)NC1C2CC3CC1CC(C(N)=O)(C3)C2)S(=O)(=O)c1ccccc1C(F)(F)F` (stereo not drawn) [compound 210, N-4-(2-(2-trifluoromethyl-N-ethylphenylsulfonamido)-2-methylpropanamido)adamantane-1-carboxyamide]: the IC50 is 0.006 µM against human 11β-HSD1 and 1.44 µM on mouse 11β-HSD1.

As to `CC(C)(NS(=O)(=O)c1ccc(C(F)(F)F)cc1)C(=O)NC1C2CC3CC1CC(C(N)=O)(C3)C2` (stereo not drawn) [compound 126], the IC50 came to 0.182 µM against human 11β-HSD1 and 0.455 µM against mouse 11β-HSD1.

As for `CC(C)(NS(=O)(=O)c1cccc([N+](=O)[O-])c1)C(=O)NC1C2CC3CC1CC(O)(C3)C2` (stereo not drawn) [compound 77, N-(5-hydroxyadamantane-2-yl)-2-methyl-2-(3-nitrophenylsulfonamido)propanamide], the IC50 against human 11β-HSD1 turned out to be 0.492 µM; on mouse 11β-HSD1 it was 0.575 µM.

With `NC(=O)C12CC3CC(C1)C(NC(=O)C1(NS(=O)(=O)c4ccccc4Br)CCCCC1)C(C3)C2` (stereo not drawn) [compound 178, N-4-(1-(2-bromophenylsulfonamido)cyclohexanecarboxyamido)adamantane-1-carboxyamide], the IC50 against human 11β-HSD1 was found to be 0.009 µM; against mouse 11β-HSD1, 0.048 µM.

Take `NC(=O)C12CC3CC(C1)C(NC(=O)C1(NS(=O)(=O)c4c(Cl)cccc4Cl)CC1)C(C3)C2` (stereo not drawn) [compound 134, N-4-(1-(2,6-dichlorophenylsulfonamido)cyclopropanecarboxyamido)adamantane-1-carboxyamide]: the IC50 against human 11β-HSD1 and against mouse 11β-HSD1 was 0.021 µM throughout.

Regarding `COc1ccccc1S(=O)(=O)NC(C)(C)C(=O)NC1C2CC3CC1CC(C(N)=O)(C3)C2` (stereo not drawn) [compound 226, 4-[2-(2-methoxy-benzenesulfonylamino)-2-methyl-propionylamino]-adamantane-1-carboxylic acid amide], the IC50 on human 11β-HSD1 was 0.062 µM; against mouse 11β-HSD1, 0.038 µM.

Take `O=C(NC1C2CC3CC(C2)CC1C3)C1(NS(=O)(=O)c2ccccc2[N+](=O)[O-])CCC1` (stereo not drawn) [compound 137, N-(adamantane-2-yl)-1-(2-nitrophenylsulfonamido)cyclobutanecarboxyamide]: the IC50 against human 11β-HSD1 came to 0.255 µM; against mouse 11β-HSD1, 1.1 µM.

For `CC(C)(NS(=O)(=O)c1cccc([N+](=O)[O-])c1)C(=O)NC1C2CC3CC1CC(C(N)=O)(C3)C2` (stereo not drawn) [compound 107, N-4-(2-(3-nitrophenylsulfonamido)-2-methylpropanamido)adamantane-1-carboxyamide], the IC50 came out at 0.178 µM against human 11β-HSD1 and 0.563 µM on mouse 11β-HSD1.

As to `CC(C)(NS(=O)(=O)c1cccnc1Cl)C(=O)NC1C2CC3CC1CC(C(N)=O)(C3)C2` (stereo not drawn) [compound 96, N-4-(2-(2-chloropyridine-3-sulfonamido)-2-methylpropanamido)adamantane-1-carboxyamide], the IC50 against human 11β-HSD1 turned out to be 0.223 µM; against mouse 11β-HSD1, 0.289 µM.

`CCN(C(C)(C)C(=O)NC1C2CC3CC1CC(C(N)=O)(C3)C2)S(=O)(=O)c1ccccc1N` (stereo not drawn) [compound 224, N-4-(2-(2-amino-N-ethylphenylsulfonamido)-2-methylpropanamido)adamantane-1-carboxyamide]: the values for the half-inhibitory concentration (IC50) against human 11β-HSD1 and against mouse 11β-HSD1 were 0.011 µM and 0.154 µM, respectively.

Consider `COc1cc([N+](=O)[O-])ccc1S(=O)(=O)NC(C)(C)C(=O)NC1C2CC3CC1CC(C(N)=O)(C3)C2` (stereo not drawn) [compound 128], for which the IC50 stood at 0.076 µM against human 11β-HSD1 and 0.22 µM at mouse 11β-HSD1.

With `Cc1c(Cl)cccc1S(=O)(=O)NC1(C(=O)NC2C3CC4CC2CC(C(N)=O)(C4)C3)CC1` (stereo not drawn) [compound 133, N-4-(1-(2-methyl-3-chlorophenylsulfonamido)cyclopropanecarboxyamido)adamantane-1-carboxyamide], the values for the IC50 against human 11β-HSD1 and at mouse 11β-HSD1 were 0.015 µM and 0.074 µM, respectively.

For `O=C(NC1C2CC3CC(C2)CC1C3)C1(NS(=O)(=O)c2cccc([N+](=O)[O-])c2)CCC1` (stereo not drawn) [compound 142, N-(adamantane-2-yl)-1-(3-nitrophenylsulfonamido)cyclobutanecarboxyamide], the IC50 is over 2.5 µM on human 11β-HSD1 and 1.44 µM against mouse 11β-HSD1.

With `NC(=O)C12CC3CC(C1)C(NC(=O)C1(NS(=O)(=O)c4cccc(Cl)c4Cl)CCCC1)C(C3)C2` (stereo not drawn) [compound 176, N-4-(1-(2,3-dichlorophenylsulfonamido)cyclopentanecarboxyamido)adamantane-1-carboxyamide], the IC50 against human 11β-HSD1 was 0.009 µM; against mouse 11β-HSD1, 0.007 µM.

Take `Cc1c(Cl)cccc1S(=O)(=O)NC1(C(=O)NC2C3CC4CC2CC(C(N)=O)(C4)C3)CCCC1` (stereo not drawn) [compound 167, N-4-(1-(3-chloro-2-methylphenylsulfonamido)cyclopentanecarboxyamido)adamantane-1-carboxyamide]: the IC50 is 0.008 µM against human 11β-HSD1 and 0.016 µM against mouse 11β-HSD1.

The values are drawn from US9073830B2 (Hyundai Pharm Co., Ltd., priority 2011, dated 2015).
